Measured values published in publication PMC11609934, “Exploration and characterization of the antimalarial activity of cyclopropyl carboxamides that target the mitochondrial protein, cytochrome b” (European Journal of Medicinal Chemistry, 2024).
Where two headings read alike, the source gives them in different places.

Legend:
[1] = test system: P. falciparum 3D7 parasites; experiment: P. falciparum 3D7 asexual stage LDH assay (72 h); type: cell-based, Plasmodium falciparum; details: for EC50: Plasmodium falciparum, 3D7, 72 h, means and SDs, three or more experiments; for fold decrease in Pf 3D7 activity relative to 17: ratio of EC50 to compound 17; for fold loss in Pf 3D7 activity relative to W499 (2): carboxamide variants versus cyclopropyl parent
Experimental: To establish the SAR, synthesized analogs were assessed against the asexual stage parasite (72 h) using LDH as a proxy for parasite growth inhibition. Cytotoxicity was monitored against the human HepG2 cell line using Cell TitreGlo as a metabolic marker for cell growth.
P. falciparum 3D7 Asexual Stage LDH Assay. This is a platform assay is routinely undertaken at the Walter and Eliza Hall Institute and details on the protocol has been previously published. Briefly, 10-point dilution series of the compounds were prepared in 384 well assay plates using an Echo555 (Labcyte). Appropriate volumes of 10 mM compound stocks were transferred into the assay plates such that the starting concentration was 1 μM, with a 1 in 3-fold dilution series. All wells were backfilled with DMSO to 40 nL such that this remained constant (0.1 % DMSO). The positive growth control was 0.1 % DMSO and the negative growth control was 100 nM chloroquine. The parasite inoculum (40 μL) was dispensed into plates containing compounds using a Multidrop Combi dispenser (Thermo Scientific). […] Following 72 h growth, plates were sealed with parafilm and frozen at −80 °C overnight. Plates were thawed at room temperature for at least 4 h prior to LDH activity being measured. […] Plates were shaken to ensure mixing and absorbance at 650 nm was measured in an EnVision (PerkinElmer) plate reader after 30 min of incubation at room temperature. […] The equation used is sigmoidal dose response (variable slope), Y = bottom + (top − bottom)/(1 + 10((logEC50 − X) × Hill Slope)).

[2] = Human HepG2 growth inhibition assay (Cell TitreGlo, 48 h); type: cell-based; details: human, HepG2 cells, HepG2 cell growth inhibition over 48 h
Experimental: To establish the SAR, synthesized analogs were assessed against the asexual stage parasite (72 h) using LDH as a proxy for parasite growth inhibition. Cytotoxicity was monitored against the human HepG2 cell line using Cell TitreGlo as a metabolic marker for cell growth. Cyt b inhibitors typically have high lipophilicity, and so calculated physicochemical properties were determined, while in vitro ADME was also collected on representative analogs to gauge their suitability for efficacy studies in a 4-day P. berghei model.
Human HepG2 Growth Inhibition Assay. This is a routine assay undertaken at the Walter and Eliza Hall Institute and the method has been previously published. HepG2 cells were cultured in Dulbeccos modified eagles medium (DMEM) supplemented with 10 % fetal calf serum (FCS), in a humidified incubator at 37 °C and 5 % CO2. Assay plates (Greiner #781098, 384 well, white, tissue culture treated) were prepared by transferring appropriate volumes of 10 mM compound stocks using an Echo555 (Labcyte) such that the starting concentration was 50 μM, with a 1:2-fold dilution series. All wells were backfilled with DMSO to […] such that this remained constant (0.5 % DMSO). The positive growth control was 0.5 % DMSO and the negative growth control was 10 μM Bortezomib. HepG2 cells were seeded with 1000 cells in 50 μL DMEM with 10 % FCS into each well of the assay plates using a Multidrop Combi dispenser (Thermo Scientific). Plates were incubated at 37 °C and 5 % CO2 for 48 h. Cytotoxicity was determined using Cell Titer Glo (Promega) and calculated as a percentage using DMSO as the positive growth control and 10 μM Bortezomib as a negative growth control. EC50 values were calculated by Dotmatics 5.3 and Spotfire 7.11.1 software using a nonlinear regression four-parameter fit analysis. The equation used is sigmoidal dose response (variable slope), Y = bottom + (top − bottom)/(1 + 10((logEC50 − X) × Hill Slope)).

[3] = LDH activity of P. falciparum 3D7 parasites over 72 h, read-out: Pf 3D7 EC50 (SD)
[4] = read-out: Pf 3D7 EC50 (SD), LDH activity of P. falciparum 3D7 parasites over 72 h

Row | SMILES | EC50 [1, 3] [µM] | CC50 at 48 h [2] [µM] | fold decrease in Pf 3D7 activity relative to 17 [1] | fold loss in Pf 3D7 activity relative to W499 (2) [1] | EC50 [1, 4] [µM]
1 | O=C(NC1CC1)c1ccc(CNCc2ccccc2)cc1 [Compound 18, 4-((Benzylamino)methyl)-N-cyclopropylbenzamide] | > 10 |  |  |  | 
2 | CN(Cc1ccccc1)Cc1ccc(C(=O)NC2CC2)cc1 [Compound 19, 4-((Benzyl(methyl)amino)methyl)-N-cyclopropylbenzamide] | 2.6 | > 40 | 20 fold |  | 
3 | CCN(Cc1ccccc1)Cc1ccc(C(=O)NC2CC2)cc1 [Compound 20, 4-((Benzyl(ethyl)amino)methyl)-N-cyclopropylbenzamide] | 0.7 | > 40 | 4 fold |  | 
4 | CC(C)(C)N(Cc1ccccc1)Cc1ccc(C(=O)NC2CC2)cc1 [Compound 23, 4-((Benzyl(tert-butyl)amino)methyl)-N-cyclopropylbenzamide] | 0.63 | > 40 |  |  | 
5 | CCC(C)N(Cc1ccccc1)Cc1ccc(C(=O)NC2CC2)cc1 (stereo not drawn) [Compound 24, 4-((Benzyl(sec-butyl)amino)methyl)-N-cyclopropylbenzamide] | 0.21 | > 40 |  |  | 
6 | O=C(NC1CC1)c1ccc(CN(Cc2ccccc2)Cc2ccccc2)cc1 [Compound 27, N-Cyclopropyl-4-((dibenzylamino)methyl)benzamide] |  | > 40 |  |  | 
7 | O=C(NC1CC1)c1cccc(CN(Cc2ccccc2)C2CC2)c1 [Compound 28, 3-((Benzyl(cyclopropyl)amino)methyl)-N-cyclopropylbenzamide] | 5.6 | > 40 | 40 fold |  | 
8 | NC(=O)c1ccc(CN(Cc2ccc(Cl)cc2Cl)C2CC2)cc1 [Compound 29] | > 10 |  |  |  | 
9 | CNC(=O)c1ccc(CN(Cc2ccc(Cl)cc2Cl)C2CC2)cc1 [Compound 30] | 1.18 | > 40 |  |  | 
10 | CCNC(=O)c1ccc(CN(Cc2ccc(Cl)cc2Cl)C2CC2)cc1 [Compound 31, 4-((Cyclopropyl(2,4-dichlorobenzyl)amino)methyl)-N-ethylbenzamide] | 0.31 | > 40 |  |  | 
11 | CCCNC(=O)c1ccc(CN(Cc2ccc(Cl)cc2Cl)C2CC2)cc1 [Compound 32, 4-((Cyclopropyl(2,4-dichlorobenzyl)amino)methyl)-N-propylbenzamide] | 0.64 | > 40 |  |  | 
12 | CC(C)NC(=O)c1ccc(CN(Cc2ccc(Cl)cc2Cl)C2CC2)cc1 [Compound 33] | 0.69 | > 40 |  |  | 
13 | O=C(NCC(F)(F)F)c1ccc(CN(Cc2ccc(Cl)cc2Cl)C2CC2)cc1 [Compound 34, 4-((Cyclopropyl(2,4-dichlorobenzyl)amino)methyl)-N-(2,2,2-trifluoroethyl)benzamide] | > 10 |  |  |  | 
14 | CN(C)CCNC(=O)c1ccc(CN(Cc2ccc(Cl)cc2Cl)C2CC2)cc1 [Compound 35] | 7.6 | 9.3 |  |  | 
15 | NCCNC(=O)c1ccc(CN(Cc2ccc(Cl)cc2Cl)C2CC2)cc1 [Compound 36, 2-(4-((Cyclopropyl(2,4-dichlorobenzyl)amino)methyl)benzamido)ethan-1-aminium 2,2,2-trifluoroacetate] | > 10 |  |  |  | 
16 | O=C(NCCO)c1ccc(CN(Cc2ccc(Cl)cc2Cl)C2CC2)cc1 [Compound 37, 4-((Cyclopropyl(2,4-dichlorobenzyl)amino)methyl)-N-(2-hydroxyethyl)benzamide] | 2.4 | > 40 |  | approximately 25 fold | 
17 | O=C(NC1CCC1)c1ccc(CN(Cc2ccc(Cl)cc2Cl)C2CC2)cc1 [Compound 38] | 0.48 | > 40 |  | 4 fold | 
18 | O=C(NC1CCCC1)c1ccc(CN(Cc2ccc(Cl)cc2Cl)C2CC2)cc1 [Compound 39] |  | > 40 |  | 12 fold | 1.2
19 | O=C(Nc1ccccc1)c1ccc(CN(Cc2ccc(Cl)cc2Cl)C2CC2)cc1 [Compound 40] |  | > 40 |  |  | 
20 | O=C(NC1CC1)c1ccc(CN(Cc2ccccc2F)C2CC2)cc1 [Compound 42] | 0.25 | > 40 |  |  | 

Row | SMILES | EC50 [1, 3] [µM] | CC50 at 48 h [2] [µM] | fold decrease in Pf 3D7 activity relative to 17 [1] | fold loss in Pf 3D7 activity relative to W499 (2) [1] | EC50 [1, 4] [µM]
21 | O=C(NC1CC1)c1ccc(CN(Cc2cccc(F)c2)C2CC2)cc1 [Compound 43] | 0.24 | > 40 |  |  | 
22 | O=C(NC1CC1)c1ccc(CN(Cc2ccc(F)cc2)C2CC2)cc1 [Compound 44] | 0.22 | > 40 |  |  | 
23 | O=C(NC1CC1)c1ccc(CN(Cc2ccccc2Cl)C2CC2)cc1 [Compound 45, 4-(((2-Chlorobenzyl) (cyclopropyl)amino)methyl)-N-cyclopropylbenzamide] | 0.29 | > 40 |  |  | 
24 | O=C(NC1CC1)c1ccc(CN(Cc2cccc(Cl)c2)C2CC2)cc1 [Compound 46, 4-(((3-Chlorobenzyl) (cyclopropyl)amino)methyl)-N-cyclopropylbenzamide] | 0.34 | > 40 |  |  | 
25 | O=C(NC1CC1)c1ccc(CN(Cc2ccc(Cl)cc2)C2CC2)cc1 [Compound 47, 4-(((4-Chlorobenzyl) (cyclopropyl)amino)methyl)-N-cyclopropylbenzamide] | 0.21 | > 40 |  |  | 
26 | Cc1ccccc1CN(Cc1ccc(C(=O)NC2CC2)cc1)C1CC1 [Compound 48] | 0.2 | > 40 |  |  | 
27 | O=C(NC1CC1)c1ccc(CN(Cc2ccccc2C(F)(F)F)C2CC2)cc1 [Compound 49] | 0.22 | > 40 |  |  | 
28 | Cc1cccc(CN(Cc2ccc(C(=O)NC3CC3)cc2)C2CC2)c1 [Compound 50] | 0.17 | > 40 |  |  | 
29 | Cc1ccc(CN(Cc2ccc(C(=O)NC3CC3)cc2)C2CC2)cc1 [Compound 51] | 0.15 | > 40 |  |  | 
30 | O=C(NC1CC1)c1ccc(CN(Cc2cccc(C(F)(F)F)c2)C2CC2)cc1 [Compound 52] | 0.16 | > 40 |  |  | 
31 | O=C(NC1CC1)c1ccc(CN(Cc2ccc(C(F)(F)F)cc2)C2CC2)cc1 [Compound 53] | 0.11 | > 40 |  |  | 
32 | CC(=O)Nc1cccc(CN(Cc2ccc(C(=O)NC3CC3)cc2)C2CC2)c1 [Compound 66, 4-(((3-Acetamidobenzyl) (cyclopropyl)amino)methyl)-N-cyclopropylbenzamide] | > 10 |  |  |  | 
33 | CC(=O)Nc1ccc(CN(Cc2ccc(C(=O)NC3CC3)cc2)C2CC2)cc1 [Compound 67, 4-(((4-Acetamidobenzyl) (cyclopropyl)amino)methyl)-N-cyclopropylbenzamide] | > 10 |  |  |  | 
34 | O=C(NC1CC1)c1ccc(CN(Cc2cccnc2)C2CC2)cc1 [Compound 86] | > 10 |  |  |  | 
35 | O=C(NC1CC1)c1ccc(CNC2CC2)cc1 [Compound 88, N-cyclopropyl-4-((cyclopropylamino)methyl)benzamide] | > 10 |  |  |  | 
36 | CN(Cc1ccc(C(=O)NC2CC2)cc1)C1CC1 [Compound 89] | > 10 |  |  |  | 
37 | CC(C)CN(Cc1ccc(C(=O)NC2CC2)cc1)C1CC1 [Compound 92] |  |  | approximately 4 fold |  | 0.54
38 | O=C(NC1CC1)c1ccc(CN(C(=O)c2ccccc2)C2CC2)cc1 [Compound 99, N-Cyclopropyl-N-(4-(cyclopropylcarbamoyl)benzyl)benzamide] | > 10 |  |  |  | 
39 | O=C(NC1CC1)c1ccc(C(=O)N(Cc2ccccc2)C2CC2)cc1 [Compound 100, N [4]-Benzyl-N^1,N [4]-dicyclopropyl-terephthalamide] | > 10 |  |  |  | 
40 | O=C(NC1CC1)c1ncc(CN(Cc2ccccc2)C2CC2)s1 [Compound 106, 5-((Benzyl(cyclopropyl)amino)methyl)-N-cyclopropylthiazole-2-carboxamide] | > 10 |  |  |  | 
